“Also recorded” adds a separate entry of the source.
Legend:
[1] = Stability in aqueous media, aprotic organic solvents and solid state; assay type: physicochemical; conditions: aqueous media / pH 7.0 buffer / 20° C.
From the text: (§1) The derivatives in which the C-7 hydroxyl group was acetylated were extremely unstable in aqueous media losing the C-7 substituent very rapidly. The stability of the synthesized compounds was examined at various pH's and temperatures. […] Table 1A includes the half-lives of six of these compounds at pH 7.5 and 9. […] This illustrates the ability to fine-tune the rate of release of taxol to a desired set of conditions using simple chemical principles.

[2] = system: MOLT-4 (T-cell leukaemia); experiment: Cytotoxicity (sulphorhodamine B), cancer cell line, Table 1B; assay type: cell-based; conditions: Homo sapiens, MOLT-4, 72 h
Procedure: (§2) The cytotoxicities were determined using the sulphorhodamine B assay method (Skehan, P. et al. J. Nat. Canc. Inst. 82, 1107 (1990)).

[3] = system: BALB/c 3T3 (normal mouse embryo); experiment: Cytotoxicity (sulphorhodamine B), normal cell line, Table 1B; assay type: cell-based; conditions: BALB/c3T3, 72 h
Procedure: as §2

[4] = system: Capan-1 (pancreatic); experiment: Cytotoxicity (sulphorhodamine B), cancer cell line, Table 1B; assay type: cell-based; conditions: Homo sapiens, CAPAN-1, 72 h
Procedure: as §2

[5] = system: CHO (Chinese hamster ovary); experiment: Cytotoxicity (sulphorhodamine B), normal cell line, Table 1B; assay type: cell-based; conditions: Cricetulus griseus, 72 h
Procedure: as §2

[6] = system: H322 (lung carcinoma); experiment: Cytotoxicity (sulphorhodamine B), cancer cell line, Table 1B; assay type: cell-based; conditions: NCI-H322, 72 h
Procedure: as §2

[7] = system: SK (melanoma); experiment: as above; assay type: cell-based; conditions: 72 h
Procedure: as §2

[8] = system: HL-60 (promyel carcinoma); experiment: as above; assay type: cell-based; conditions: Homo sapiens, HL-60, 72 h
Procedure: as §2

[9] = Taxol release from protaxols in aqueous buffer; assay type: physicochemical; conditions: pH 7.0-9.0, 20 and 37° C., FIG. 2A
Procedure: as §1
Protaxol 5 was dissolved in dimethylsulphoxide (DMSO) at 25° C. and immediately added to the appropriate phosphate buffer solution at the specified temperature. Aliquots were analysed using a Waters Maxima system HPLC instrument equipped with auto-injector (3.9×300 mm C18 column equipped with a precolumn; flow rate, 1.5 ml min^-1; eluant, gradient A-B, where A is 80% 100 mM ammonium acetate, buffer pH 6.0, and B is 100% methanol; ultraviolet detector). The per cent taxol released was determined from the relative areas of the peaks corresponding to protaxol 5 and taxol (the conversion was clean, and it was assumed that the two compounds have equal molar extinction coefficients).

[10] = system: 786-0 (renal cell carcinoma); experiment: Cytotoxicity (sulphorhodamine B), cancer cell line, Table 1B; assay type: cell-based; conditions: Homo sapiens, 786-0, 72 h
Procedure: as §2

[11] = system: OVCAR-3 (ovarian carcinoma); experiment: as above; assay type: cell-based; conditions: Homo sapiens, OVCAR-3, 72 h
Procedure: as §2

[12] = system: UCLA-P-3 (lung carcinoma); experiment: as above; assay type: cell-based; conditions: Homo sapiens, UCLA P-3, 72 h
Procedure: as §2

[13] = system: SIHA (cervix carcinoma); experiment: as above; assay type: cell-based; conditions: Homo sapiens, SiHa, 72 h
Procedure: as §2

SMILES: CC(=O)O[C@H]1C(=O)[C@@]2(C)[C@H]([C@H](OC(=O)c3ccccc3)[C@]3(O)C[C@H](OC(=O)[C@H](OC(=O)CS(=O)(=O)CC(=O)O)[C@@H](NC(=O)c4ccccc4)c4ccccc4)C(C)=C1C3(C)C)[C@]1(OC(C)=O)CO[C@@H]1C[C@@H]2O [Compound 5]
- stability in aqueous media [1]: good solubility and stability properties in aqueous media; also recorded: quite stable
- IC50 [2]: 1 nM
- IC50 [3]: 10 µM
- IC50 [4]: < 1 nM
- IC50 [5]: 100 µM
- IC50 [6]: 1 nM
- IC50 [7]: 10 µM
- IC50 [8]: < 1 nM
- effect of temperature and pH on taxol release [9]: accelerating effect of higher temperatures and pH on taxol release
- IC50 [10]: 1000 nM
- IC50 [11]: < 1 nM
- IC50 [12]: < 1 nM
- IC50 [13]: 100 µM
